According to patent US10682388B2, “Targeting of PELP1 in cancer therapy” (THE BOARD OF REGENTS OF THE UNIVERSITY OF TEXAS SYSTEM, priority 2014, dated 2020):
“Also recorded” adds a separate entry of the source.

How the values were obtained:
Assay type in all cases: cell-based, Human
[1] = system: ERE-luciferase in ZRPELP1 cells; experiment: ERE-luciferase reporter gene assay in PELP1 overexpressing cells; details: peptide 24 hours, estradiol 12 hours, compared to control TAT, FIGS. 4B, 10
Method: (§1) FIGS. 4A-E. (FIG. 4A) ZR75vec, ZR75PELP1, MCF7vec and MCF7PELP1 cells were treated in triplicate with TAT, PIP1 or PIP1 deletions (Del1, Del2, Del3) at 10 uM every 3 days and proliferation was measured by MTT assay on day 7. (FIG. 4B) ZRPELP1 cells were transfected with ERE-luciferase and treated with TAT, PIP1, or PIP2 for 24 hours and with estradiol for 12 hours. Relative luciferase activity was measured in triplicate. (FIG. 4C) ZR75 cells were grown in 5% DCC media for 72 hours, treated with TAT or PIP1 every 3 days, and treated with estradiol 10^−7 M for 12 hours. Proliferation was measured in triplicate on day 7 by MTT assay at 595 nm. (FIG. 4D) MCF7-Letrozole resistant cells were grown in 5% DCC media for 72 hours, treated with TAT, PIP1 or PIP2 every 3 days, and letrozole or estradiol 10^−7 M for 12 hours. Proliferation was measured in triplicate on day 7 by MTT assay at 595 nm. (FIG. 4E) MCF7-Tamoxiefn resistant cells were grown in 5% DCC media for 72 hours, treated with TAT, PIP1 or PIP2 every 3 days, and tamoxifen or estradiol 10^−7 M for 12 hours. Proliferation was measured in triplicate on day 7 by MTT assay at 595 nm.
FIG. 10. ERE-luciferase assay. […]
Model cells were seeded in 6-well plates. […] Luciferase activity was measured by using the luciferase assay system (Promega, Madison, Wis.).

[2] = system: G9a target genes Pecam1, Serac1, Rb1 and Bmi1 in ZR75 cells; experiment: qRTPCR of G9a target genes; details: 10 μM, FIG. 3B
Method: FIGS. 3A-F. (FIG. 3A) Recombinant histones were incubated with G9a with increasing concentrations of PELP1, incubated 1 hour at 30° C. and western blot analysis was performed for expression of H3K9me2. Total histone H3 is shown as the control. (FIG. 3B) qRTPCR analysis of ZR75 and ZRPELP1KD cells treated with 10 μM TAT or PIP1 for 24 hours. G9a target genes PECAM1, SERAC1, RB1 and BMI1 expression is shown as—fold change over actin. (FIG. […]) ChIP-sequencing location analysis of H3K9me2 in control ZR75 model cells. (FIG. 3D) ChIP-sequencing location analysis of H3K9me2 in stable ZR75PELP1KD cells. (FIG. 3E) Ingenuity pathway analysis of genes from binding peaks of ChIP-sequencing of H3K9me2 in stable PELP1 ZR75PELP1KD cells. (FIG. 3F) Image from Integrated Genome Viewer of ChIP-sequencing of H3K9me2 in ZR75 and ZRPELP1KD cells.
Model cells ZR75 and ZRPELP1KD were grown in 8% DCC media for 72 hours and treated with TAT or PIP1 (10 μM) for […]. RNA was isolated by Trizol and cDNA was synthesized by Superscript III First Strand reverse transcriptase (Invitrogen). qPCR was performed in triplicate by SyberGreen using an Illumina Eco Real-Time PCR System. Gene expression was normalized to actin.

[3] = system: ZRPELP1 and MCF7-PELP1 cells; experiment: Mammosphere formation assay; details: 10 μM and 20 μM, FIG. 12
Method: FIG. 12. Effect of PIP1 on mammosphere formation. Single-cell suspensions of ZR75-PELP1 were plated in triplicate wells at a density of 10,000 cells per ml in mammosphere medium in non-adherent plates. Cultures were treated with indicated concentration of PIP1 and mammospheres were counted after 7 days. ZR75PELP1 and MCF7PELP1 cells were FACS sorted for CD44-APC^high (Milteny Biotec) and CD24-PE^low (Milteny Biotec) cell surface markers. A single cell suspension of model cells ZR75-PELP1 were seeded in mammosphere media in a low adherent 96-well plate with TAT or PIP (10, 20 or 50 μM). Media containing peptide was added on day 4 and mammospheres were counted and imaged on day 8 (Shaw et al., 2012).

ZR75 cells = experiment: Estrogen-mediated growth, MTT assay; details: ZR75 cells stimulated with estradiol, FIG. 4C
Method: as §1, with “(FIG. 4E) MCF7-Tamoxiefn resistant cells were grown in 5% DCC media for 72 hours, treated with TAT, PIP1 or PIP2 every 3 days, and tamoxifen or estradiol 10^−7 M for 12 hours.” left out
Cell proliferation rates were measured by using MTT Cell Viability Assay in 96-well plates. […] After an overnight incubation, cells were treated with varying concentrations of the peptides for 3-7 days and growth inhibition was determined by using traditional MTT assay (Sigma) following manufacturer's instructions.

[4] = system: MCF7-TamR and MCF7-LTLT cells; experiment: Therapy resistance assays, MTT; details: FIGS. 4D-E, 11
Method: as §1
FIG. 11. Cell proliferation assay: letrozole-resistant MCF-7-LTLT cells and Tamoxifen resistant MCF7-Tam cells were treated with TAT, PIP1, or PIP2 (10 μM)+/− letrozole or Tamoxifen.
Tamoxifen (Tam) therapy resistant MCF7-TamR and letrozole resistant MCF7-LTLT cells were cultured in tamoxifen or letrozole (10^-7M) containing media in the presence or absence of peptides and proliferation was measured by MTT assay (Sigma) following manufacturer's instructions.

Sequence: GRKKRRQRRRGGMVEFRWSCPGRRKAKA [PIP1]
- ERE activation (ERE-luciferase) [1]: significantly decreased ERE activation
- expression of G9a target genes Pecam1, Serac1, Rb1 and Bmi1 [2]: decrease in the expression G9a upregulated target genes
- number of mammospheres [3]: significant decrease in the number of mammospheres
- size of the mammospheres [3]: substantially decreased
- estrogen-mediated growth (ZR75 cells): inhibition of the estrogen-mediated growth
- proliferation of therapy resistant cell lines ([4]; MCF7-TamR and MCF7-LTLT, 10 μM): inhibited the proliferation; also recorded: efficiently reduce the growth of therapy resistant cells
- combined effect on proliferation with hormonal therapy (tamoxifen, letrozole) ([4]; therapy resistant cells): synergistic inhibition of proliferation with tamoxifen
